The record followed here is patent US8999384B2, “Immediate release compositions of acid labile drugs” (priority 2010, dated 2015).

The data set in a line: Acid neutralizing capacity of buffers: buffer added to basal SGF and titrated with excess 0.1N HCl for 1 hour. Particulars: for initial rise in pH: at the buffer quantity required to neutralize the SGF (quantity stated per buffer); for pH upon addition of excess acid for a period of 1 h: at the buffer quantity required to neutralize the SGF, 0.1N HCl at 0.5 ml/minute; for quantity of buffer required to neutralize the basal SGF: basal SGF: 9.6 ml of 0.1N HCl + 210 ml of water. In kind it is physicochemical. The procedure: A number of buffers, both soluble and insoluble, were tested for their acid neutralizing capacity. Based on their acid neutralizing capacity, buffers, both individual and combination, were evaluated for their behavior at the excess secretion of acid. The technique involved consists of adding an excess dose of the buffer to a sample of artificial gastric juice. […] The model was simulated in vitro and the buffer was added to the basal SGF medium containing 9.6 ml of 0.1N HCl+210 ml of water and titrated with excess acid (0.1N HCl) at the rate of 0.5 ml/minute for a period of 1 hour (total volume=250 ml). The buffer(s) which maintained a pH above 6.0 at the excess secretion of acid was selected.

Take `[Mg+2].[O-2]` [Heavy Magnesium oxide]: the “initial rise in pH” value turned out to be 7, the “pH upon addition of excess acid for a period of 1 h” value is 7 and the “quantity of buffer required to neutralize the basal SGF” value is “About 80 mg”.

Turning to `NC(CO)(CO)CO` [Tromethamine], the “initial rise in pH” value came out at 8, the “pH upon addition of excess acid for a period of 1 h” value was determined as 8 and the “quantity of buffer required to neutralize the basal SGF” value is “About 1000 mg”.
